In brackets after ≈: the same amount, converted by molar mass. Like-named read-outs stand apart in the source and are kept apart here.
Assays:
Assay type in all cases: cell-based
Mycobacterium abscessus [1] = test: MBC, plating of MIC wells and CFU count; details: Mycobacteroides abscessus, read-out: Minimum Bactericidal Concentration (MBC)
[2] = test system: Mycobacterium intracellulare; test: MIC, micro broth dilution with resazurin readout; details: MH Culture Medium, read-out: Minimum Inhibitory Concentration (MIC)
[3] = test system: Mycobacterium massiliense; test: MIC, micro broth dilution with resazurin readout; details: Mycobacteroides abscessus, MH Culture Medium, read-out: Minimum Inhibitory Concentration (MIC)
Mycobacterium kansasii [4] = test: MIC, micro broth dilution with resazurin readout; details: read-out: Minimum Inhibitory Concentration (MIC)
Mycodacterium chelonei = test: MIC, micro broth dilution with resazurin readout; details: MH Culture Medium; Chelonei (standard strain); read-out: Minimum Inhibitory Concentration (MIC)
Mycobacterium fortuitum = test: MIC, micro broth dilution with resazurin readout; details: Mycolicibacterium fortuitum, MH Culture Medium, read-out: Minimum Inhibitory Concentration (MIC)
Mycobacterium kansasii [5] = test: MBC, plating of MIC wells and CFU count; details: read-out: Minimum Bactericidal Concentration (MBC)
Mycobacterium avium [6] = test: MBC, plating of MIC wells and CFU count; details: read-out: Minimum Bactericidal Concentration (MBC)
Mycobacterium avium [7] = test: MIC, micro broth dilution with resazurin readout; details: read-out: Minimum Inhibitory Concentration (MIC)
Mycobacterium abscessus [8] = test: MIC, micro broth dilution with resazurin readout; details: Mycobacteroides abscessus, read-out: Minimum Inhibitory Concentration (MIC)
[9] = 7H9 Broth, Mycobacterium avium Rough
[10] = 7H9 Broth, Mycobacterium avium Smooth
[11] = MH Broth, Mycobacterium avium Smooth

Q: What does the source list for `CO[C@H]1/C=C/O[C@@]2(C)Oc3c(C)c(O)c4c(O)c(c(/C=N/N5CCN(C)CC5)c(O)c4c3C2=O)NC(=O)/C(C)=C\C=C\[C@H](C)[C@H](O)[C@@H](C)[C@@H](O)[C@@H](C)[C@H](OC(C)=O)[C@@H]1C` [Rifampicin]?
A: MBC (Mycobacterium abscessus [1]; 7H9 Broth): > 64 µg/mL; MBC (Mycobacterium abscessus [1]; MH Broth): > 64 µg/mL; MIC ([2]; Intracellulare (standard strain)): 0.25 µg/mL (≈ 0.304 µM); MIC ([2]; clinically isolated strain Intracellulare (S90)): 8 µg/mL (≈ 9.72 µM); MIC ([2]; clinically isolated strain Intracellulare (S261)): 16 µg/mL (≈ 19.4 µM); MIC ([2]; clinically isolated strain Intracellulare (S269)): 4 µg/mL (≈ 4.86 µM); MIC ([2]; clinically isolated strain Intracellulare (S290)): 4 µg/mL (≈ 4.86 µM); MIC ([2]; clinically isolated strain Intracellulare (S291)): 4 µg/mL (≈ 4.86 µM); MIC ([2]; clinically isolated strain Intracellulare (S298)): 4 µg/mL (≈ 4.86 µM); MIC ([2]; clinically isolated strain Intracellulare (S442)): 2 µg/mL (≈ 2.43 µM); MIC ([2]; clinically isolated strain Intracellulare (S541)): 16 µg/mL (≈ 19.4 µM); MIC ([2]; clinically isolated strain Intracellulare (S623)): 8 µg/mL (≈ 9.72 µM); MIC ([2]; clinically isolated strain Intracellulare (ZPS)): 2 µg/mL (≈ 2.43 µM); MIC ([3]; clinically isolated strain Massiliense (D10)): > 64 µg/mL; MIC ([3]; clinically isolated strain Massiliense (D14)): > 64 µg/mL; MIC ([3]; clinically isolated strain Massiliense (D18)): > 64 µg/mL; MIC (Mycobacterium kansasii [4]; 7H9 Broth): 16 µg/mL (≈ 19.4 µM); MIC (Mycobacterium kansasii [4]; MH Broth): 16 µg/mL (≈ 19.4 µM); MIC (Mycobacterium kansasii [4]; MH Culture Medium, Kansasii (standard strain)): 0.125 µg/mL (≈ 0.152 µM); MIC (Mycobacterium kansasii [4]; MH Culture Medium, clinically isolated strain Kansasii (S9)): 0.125 µg/mL (≈ 0.152 µM); MIC (Mycobacterium kansasii [4]; MH Culture Medium, clinically isolated strain Kansasii (S199)): 0.0625 µg/mL (≈ 0.0759 µM); MIC (Mycobacterium kansasii [4]; MH Culture Medium, clinically isolated strain Kansasii (S520)): 0.0625 µg/mL (≈ 0.0759 µM); MIC (Mycobacterium kansasii [4]; MH Culture Medium, clinically isolated strain Kansasii (S609)): 0.0625 µg/mL (≈ 0.0759 µM); MIC (Mycodacterium chelonei): > 64 µg/mL; MIC (Mycobacterium fortuitum; Fortuitum (standard strain)): > 64 µg/mL; MIC (Mycobacterium fortuitum; clinically isolated strain Fortuitum (S103)): > 64 µg/mL; MIC (Mycobacterium fortuitum; clinically isolated strain Fortuitum (S111)): 64 µg/mL (≈ 77.8 µM); MBC (Mycobacterium kansasii [5]; 7H9 Broth): 4 µg/mL (≈ 4.86 µM); MBC (Mycobacterium kansasii [5]; MH Broth): 4 µg/mL (≈ 4.86 µM); MBC (Mycobacterium avium [6]; [9]): > 64 µg/mL; MBC (Mycobacterium avium [6]; [10]): 4 µg/mL (≈ 4.86 µM); MBC (Mycobacterium avium [6]; [11]): 4 µg/mL (≈ 4.86 µM); MIC (Mycobacterium avium [7]; [9]): 8 µg/mL (≈ 9.72 µM); MIC (Mycobacterium avium [7]; [10]): 0.5 µg/mL (≈ 0.608 µM); MIC (Mycobacterium avium [7]; MH Broth, Mycobacterium avium Rough): 8 µg/mL (≈ 9.72 µM); MIC (Mycobacterium avium [7]; [11]): 1 µg/mL (≈ 1.22 µM); MIC (Mycobacterium avium [7]; MH Culture Medium, Avium (standard strain)): 0.25 µg/mL (≈ 0.304 µM); MIC (Mycobacterium avium [7]; MH Culture Medium, clinically isolated strain Avium (S31)): 0.0625 µg/mL (≈ 0.0759 µM); MIC (Mycobacterium avium [7]; MH Culture Medium, clinically isolated strain Avium (S123)): 8 µg/mL (≈ 9.72 µM); MIC (Mycobacterium avium [7]; MH Culture Medium, clinically isolated strain Avium (S559)): 0.125 µg/mL (≈ 0.152 µM); MIC (Mycobacterium avium [7]; MH Culture Medium, clinically isolated strain Avium (S568)): 4 µg/mL (≈ 4.86 µM); MIC (Mycobacterium avium [7]; MH Culture Medium, clinically isolated strain Avium (S577)): 0.125 µg/mL (≈ 0.152 µM); MIC (Mycobacterium avium [7]; MH Culture Medium, clinically isolated strain Avium (S597)): 8 µg/mL (≈ 9.72 µM); MIC (Mycobacterium avium [7]; MH Culture Medium, clinically isolated strain Avium (S602)): 2 µg/mL (≈ 2.43 µM); MIC (Mycobacterium abscessus [8]; 7H9 Broth): > 64 µg/mL; MIC (Mycobacterium abscessus [8]; MH Broth): > 64 µg/mL
